Results reported in patent publication US10669272B2, “Substituted naphthyridinone compounds useful as T cell activators” (BRISTOL-MYERS SQUIBB COMPANY, priority 2018, dated 2020).
Like-named read-outs stand apart in the source and are kept apart here.

Legend:
human DGKα = target: T1, human DGKα (Homo sapiens, UniProt P23743); test: DGKα LIPGLO assay (extruded liposome substrate), in vitro DGK inhibition; assay type: biochemical; conditions: read-out: DGKa LIPGLO IC50
T1 construct: TVMV protease cleavage site (C); Hexa-His (C); made in house; host or cells: Sf9 insect cells (baculovirus, Bac-to-Bac)
T1 sequence (P23743 with tags, fused parts or gaps): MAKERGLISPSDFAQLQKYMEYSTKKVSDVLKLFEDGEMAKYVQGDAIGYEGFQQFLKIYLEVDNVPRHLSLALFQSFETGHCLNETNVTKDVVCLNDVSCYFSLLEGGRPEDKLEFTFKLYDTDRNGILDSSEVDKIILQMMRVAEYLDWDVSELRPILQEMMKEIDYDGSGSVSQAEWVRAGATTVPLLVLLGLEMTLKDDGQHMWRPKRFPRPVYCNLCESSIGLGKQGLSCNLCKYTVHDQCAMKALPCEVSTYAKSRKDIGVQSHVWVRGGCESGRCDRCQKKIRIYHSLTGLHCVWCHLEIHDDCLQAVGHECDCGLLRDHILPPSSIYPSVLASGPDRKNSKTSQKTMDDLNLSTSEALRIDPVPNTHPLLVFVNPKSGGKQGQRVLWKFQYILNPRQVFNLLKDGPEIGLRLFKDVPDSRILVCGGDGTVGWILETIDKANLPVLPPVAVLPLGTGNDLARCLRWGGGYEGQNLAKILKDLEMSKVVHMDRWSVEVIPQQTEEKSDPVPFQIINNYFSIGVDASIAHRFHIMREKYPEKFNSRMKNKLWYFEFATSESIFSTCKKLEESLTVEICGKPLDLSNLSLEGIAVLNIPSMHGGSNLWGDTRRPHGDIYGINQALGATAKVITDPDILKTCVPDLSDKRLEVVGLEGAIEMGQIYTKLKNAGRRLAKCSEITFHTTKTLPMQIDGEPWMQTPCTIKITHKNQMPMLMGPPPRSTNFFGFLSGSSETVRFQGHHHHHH

human DGKζ = target: T2, human DGKζ (Homo sapiens, UniProt Q13574); test: DGKζ LIPGLO assay (extruded liposome substrate), in vitro DGK inhibition; assay type: biochemical; conditions: read-out: DGKz LIPGLO IC50
T2 construct: TVMV protease cleavage site (C); Hexa-His (C); made in house; host or cells: Sf9 insect cells (baculovirus, Bac-to-Bac)
T2 sequence (Q13574 with tags, fused parts or gaps isoform Q13574-4): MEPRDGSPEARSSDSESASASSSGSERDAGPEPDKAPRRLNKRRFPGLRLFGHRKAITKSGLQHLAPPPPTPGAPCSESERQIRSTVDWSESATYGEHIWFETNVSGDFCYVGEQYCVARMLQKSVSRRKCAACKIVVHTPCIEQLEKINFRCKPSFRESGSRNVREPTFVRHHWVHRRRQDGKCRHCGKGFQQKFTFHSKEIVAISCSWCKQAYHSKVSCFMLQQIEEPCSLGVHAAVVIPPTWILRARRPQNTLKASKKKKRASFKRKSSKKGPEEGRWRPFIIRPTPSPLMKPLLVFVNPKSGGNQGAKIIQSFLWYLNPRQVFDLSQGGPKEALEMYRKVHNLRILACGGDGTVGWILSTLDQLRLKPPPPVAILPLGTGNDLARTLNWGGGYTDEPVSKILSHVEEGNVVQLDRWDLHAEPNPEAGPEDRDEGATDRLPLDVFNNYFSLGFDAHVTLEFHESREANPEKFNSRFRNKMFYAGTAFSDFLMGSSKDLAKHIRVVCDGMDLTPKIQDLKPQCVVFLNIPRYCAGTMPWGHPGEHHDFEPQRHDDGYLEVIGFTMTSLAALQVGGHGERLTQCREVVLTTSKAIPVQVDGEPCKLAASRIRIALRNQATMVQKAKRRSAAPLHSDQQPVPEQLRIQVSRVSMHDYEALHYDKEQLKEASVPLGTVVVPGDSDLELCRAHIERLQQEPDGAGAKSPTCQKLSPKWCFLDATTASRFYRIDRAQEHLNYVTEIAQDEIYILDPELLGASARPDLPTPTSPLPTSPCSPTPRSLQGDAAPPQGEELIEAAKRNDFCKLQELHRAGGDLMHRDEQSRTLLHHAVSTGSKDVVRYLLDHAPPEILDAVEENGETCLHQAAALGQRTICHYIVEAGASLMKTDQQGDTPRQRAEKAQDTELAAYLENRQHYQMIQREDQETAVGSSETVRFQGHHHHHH

Human venous whole blood = test: Human whole blood IFN-γ assay; assay type: cell-based; conditions: human whole blood, read-out: INFg Whole Blood Normalized Agonist EC50;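 also: blood from healthy donors exposed to compound for 1 h before stimulation with anti-CD3 and anti-CD28 at 1 µg/mL each, IFN-γ quantified in supernatant by AlphaLISA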
Description: Human Whole Blood IFN-γ Assay
Human venous whole blood (22.5 μL per well), obtained from healthy donors, was pre-treated with compounds for one hour at 37° C. in a humidified 95% air/5% CO2 incubator. The blood was stimulated with 2.5 μL anti-human CD3 and anti-CD28 mAb at a final concentration of 1 μg/mL each for 24 hours at 37° C. IFN-γ in the supernatants was measured using AlphLISA kit (Cat # AL217).

[1] = Homo sapiens, 24 h, normalized to 3 μM reference compound with anti-CD3 plus anti-CD28 as 100% activation
[2] = normalized to 3 μM reference compound with anti-CD3 plus anti-CD28 as 100% activation
[3] = anti-CD3 plus anti-CD28, 24 hours, 3 μM reference compound = 100% activation
[4] = Homo sapiens, 24 h, anti-CD3 plus anti-CD28, 24 hours, 3 μM reference compound = 100% activation

Structure (SMILES)	IC50 (human DGKα; liposome (LIPGLO) assay)	IC50 (human DGKζ; liposome (LIPGLO) assay)	EC50 (Human venous whole blood; [1])	EC50 (Human venous whole blood; [2])	IC50 (human DGKα; DGKα liposome (LIPGLO) assay)	IC50 (human DGKζ; DGKζ liposome (LIPGLO) assay)	EC50 (Human venous whole blood; [3])	EC50 (Human venous whole blood; [4])
C[C@@H]1CN(c2cc(=O)n(C)c3ccc(C#N)nc23)[C@@H](C)CN1Cc1nnnn1C1CC1 [Example 1423]	50 µM	44 µM	20 µM					
C[C@@H]1CN(c2cc(=O)n(C)c3ccc(C#N)nc23)[C@@H](C)CN1C(c1ccc(F)cc1)c1ccns1 (stereo partly drawn) [Example 720]	1.1 µM	0.94 µM		1.9 µM				
CC[C@H]1CN(C(c2ccc(F)cc2)c2cccc(C(F)(F)F)n2)[C@H](C)CN1c1cc(=O)n(C)c2ccc(C#N)nc12 (single isomer, unassigned) [Example 1133]	1.6 µM	0.13 µM	0.57 µM					
Cc1ccc(C(c2cccc(F)c2)N2C[C@H](C)N(c3cc(=O)n(C)c4ccc(C#N)nc34)C[C@H]2C)cn1 (single isomer, unassigned) [Example 390]	17 µM	7.4 µM		2.6 µM				
C[C@@H]1CN(c2c(C#N)c(=O)n(C)c3ccc(C#N)nc23)[C@@H](C)CN1C(c1ccc(F)cc1)c1cnn(C)c1 (stereo partly drawn) [Example 847]					22 µM	7.4 µM	5 µM	
C[C@@H]1CN(c2c(C#N)c(=O)n(C)c3ccc(C#N)nc23)CCN1Cc1ccc(Cl)c(F)c1 [Example 1015]					1.4 µM	8.2 µM		2.7 µM
CCc1ccc(C(c2ccc(F)cc2)N2C[C@H](C)N(c3c(C#N)c(=O)n(C)c4ccc(C#N)nc34)C[C@H]2C)cc1 (single isomer, unassigned) [Example 811]					9.3 µM	2.6 µM		2.1 µM
C[C@@H]1CN(c2cc(=O)n(C)c3ccc(C#N)nc23)[C@@H](C)CN1C(c1ccc(F)cc1)c1nnc(C2CC2)[nH]1 (single isomer, unassigned) [Example 766]					0.66 µM	9.4 µM		3.5 µM
Cc1ccc(C(c2ccc(C)cc2)N2C[C@@H](C)N(c3cc(=O)n(C)c4ccc(C#N)nc34)C[C@@H]2CO)cc1 [Example 1173]	10 µM	0.98 µM	1.4 µM					
C[C@@H]1CN(c2cc(=O)n(C)c3ccc(C#N)nc23)[C@@H](C)CN1C(c1ccc(F)cc1)c1ccc(N2CCOCC2)cc1 (single isomer, unassigned) [Example 662]	> 250 µM	> 250 µM	20 µM					
C[C@@H]1CN(c2c(C#N)c(=O)n(C)c3ccc(C#N)nc23)CCN1C(c1ccc(F)cc1)c1ncccc1F (single isomer, unassigned) [Example 893]					0.92 µM	0.72 µM	1.7 µM	
C[C@@H]1CN(c2cc(=O)n(C)c3ccc(C#N)nc23)[C@@H](C)CN1C(c1ccc(F)cc1)c1cccc(C(F)F)n1 (single isomer, unassigned) [Example 696]	0.24 µM	0.24 µM		0.42 µM				
COc1ccc(C(C)N2C[C@H](C)N(c3c(C#N)c(=O)n(C)c4ccc(C#N)nc34)C[C@H]2C)nc1 (single isomer, unassigned) [Example 799]					0.86 µM	9.9 µM	20 µM	
C[C@@H]1CN(c2cc(=O)n(C)c3ccc(C#N)nc23)[C@@H](C)CN1Cc1ccc(P(C)(C)=O)cc1 [Example 1289]	51 µM	130 µM	20 µM					
C[C@@H]1CN(c2cc(=O)n(C)c3ccc(C#N)nc23)[C@@H](C)CN1C(c1ccc(F)cc1)c1nccn1C (stereo partly drawn) [Example 713]	6.6 µM	51 µM		13 µM				
COCc1cc(C(C)N2C[C@H](C)N(c3cc(=O)n(C)c4ccc(C#N)nc34)C[C@H]2C)ccc1F (single isomer, unassigned) [Example 1316]	1.8 µM	0.018 µM	4.5 µM					

Structure (SMILES)	IC50 (human DGKα; liposome (LIPGLO) assay)	IC50 (human DGKζ; liposome (LIPGLO) assay)	EC50 (Human venous whole blood; [1])	EC50 (Human venous whole blood; [2])	IC50 (human DGKα; DGKα liposome (LIPGLO) assay)	IC50 (human DGKζ; DGKζ liposome (LIPGLO) assay)	EC50 (Human venous whole blood; [3])	EC50 (Human venous whole blood; [4])
Cc1oncc1CN1C[C@H](C)N(c2cc(=O)n(C)c3ccc(C#N)nc23)C[C@H]1C [Example 1431]	59 µM	12 µM	13 µM					
CC(c1ccc(F)cc1)N1CCN(c2c(C#N)c(=O)n(C)c3ccc(C#N)nc23)C[C@H]1C (single isomer, unassigned) [Example 957]					0.26 µM	8.6 µM	1.7 µM	
COCCOC[C@@H]1CN(c2cc(=O)n(C)c3ccc(C#N)nc23)[C@@H](C)CN1C(C)c1ccc(OC(F)(F)F)cc1 (single isomer, unassigned) [Example 1405]	0.96 µM	0.057 µM	0.48 µM					
CC[C@H]1CN(C(C)c2ccc(OC(F)(F)F)cc2F)[C@H](CC)CN1c1cc(=O)n(C)c2ccc(C#N)nc12 (single isomer, unassigned) [Example 1372]	0.46 µM	1.7 µM		1.4 µM				
CC[C@H]1CN(C(c2cccc(F)c2)c2ccc(C)cn2)[C@H](C)CN1c1cc(=O)n(C)c2ccc(C#N)nc12 (single isomer, unassigned) [Example 1125]	0.36 µM	1.5 µM		0.17 µM				
CC(c1ccc(F)cn1)N1C[C@H](C)N(c2cc(=O)n(C)c3ccc(C#N)nc23)C[C@H]1C (single isomer, unassigned) [Example 640]	0.036 µM	3.9 µM		1.6 µM				
C[C@@H]1CN(c2cc(=O)n(C)c3ccc(C#N)nc23)[C@@H](C)CN1C(c1ccc(F)cc1)c1cnc(C2CC2)s1 (single isomer, unassigned) [Example 727]					37 µM	1.6 µM		1.3 µM
CCC(c1ccc(OCCC2CC2)cc1)N1C[C@H](C)N(c2cc(=O)n(C)c3ccc(C#N)nc23)C[C@H]1C (single isomer, unassigned) [Example 1445]	5.4 µM	3.6 µM		5.3 µM				
CC(c1ccc(C2CC2)cc1F)N1C[C@H](C)N(c2cc(=O)n(C)c3ccc(C#N)nc23)C[C@H]1C (single isomer, unassigned) [Example 1201]	13 µM	3.4 µM	5.6 µM					
CCC(c1ccc(OC(C)C)cc1)N1C[C@H](C)N(c2cc(=O)n(C)c3ccc(C#N)nc23)C[C@H]1CC (single isomer, unassigned) [Example 1448]	4.2 µM	1.7 µM		1.6 µM				
CC(c1ccc(OC(C)(C)C)cc1)N1C[C@H](C)N(c2cc(=O)n(C)c3ccc(C#N)nc23)C[C@H]1C (single isomer, unassigned) [Example 1442]	0.065 µM	1 µM		0.53 µM				
Cc1ccc(C(C)N2C[C@H](C)N(c3c(C#N)c(=O)n(C)c4ccc(C#N)nc34)C[C@H]2C)cc1 (single isomer, unassigned) [Example 784]					1.2 µM	2.6 µM	2 µM	
C[C@@H]1CN(c2c(C#N)c(=O)n(C)c3ccc(C#N)nc23)[C@@H](C)CN1C(c1ccc(F)cc1)c1nc(C2CC2)no1 (single isomer, unassigned) [Example 860]					0.41 µM	1.3 µM		0.72 µM
CC[C@H]1CN(C(c2ccc(F)cc2)c2ccc(Cl)cc2)[C@H](C)CN1c1cc(=O)n(C)c2ccc(C#N)nc12 (stereo partly drawn) [Example 1128]	0.73 µM	0.94 µM		0.55 µM				
C[C@@H]1CN(c2c(C#N)c(=O)n(C)c3ccc(C#N)nc23)CCN1C(c1ccccc1)c1ccc(F)cc1 (single isomer, unassigned) [Example 878]					1.9 µM	1.3 µM	0.57 µM	
